Test results: the supplement of paper PMC10307832

Tests used:
Test in all cases: relative viability (nuclei count vs DMSO), 5 days (fraction); higher = more cells survive
[1] = test system: NCI-H2009
Outline: (§1)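 Relative viability equals treated-well nuclei counts divided by vehicle-well nuclei counts. Counts came from 4× images of lung cancer cell lines grown in 1536-well plates for 5 days after pin-tool dosing on the day after seeding. Dosing used one drug alone or a fixed anchor-drug dose plus five library-drug doses (not always all listed) in √10 steps, and values are medians of duplicate plates.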

[2] = test system: LOU-NH91
Outline: as §1

[3] = test system: NCI-H596
Outline: as §1

[4] = test system: LC-2-ad
Outline: as §1

[5] = test system: HCC-44
Outline: as §1

[6] = test system: HCC-827
Outline: as §1

[7] = test system: NCI-H661
Outline: as §1

[8] = test system: NCI-H2342
Outline: as §1

[9] = test system: SK-LU-1
Outline: as §1

[10] = test system: HARA
Outline: as §1

[11] = test system: BEN
Outline: as §1

[12] = test system: NCI-H1355
Outline: as §1

Compound: COc1cc(N2CCC(C(N)=O)CC2)ccc1Nc1nc(N)c(Cl)c(Nc2ccccc2S(=O)(=O)C(C)C)n1 [HG-5-88-01] + CCNC(=O)c1noc(-c2cc(C(C)C)c(O)cc2O)c1-c1ccc(CN2CCOCC2)cc1 [Luminespib] (partner 0.01 µM)
- relative viability ([1]; first compound 0.04 µM): 1.11
- relative viability ([1]; first compound 0.1265 µM): 1.06
- relative viability ([1]; first compound 0.4 µM): 0.954
- relative viability ([1]; first compound 1.265 µM): 0.994
- relative viability ([1]; first compound 4 µM): 1.12
- relative viability ([2]; first compound 0.04 µM): 0.337
- relative viability ([2]; first compound 0.1265 µM): 0.338
- relative viability ([2]; first compound 0.4 µM): 0.331
- relative viability ([2]; first compound 1.265 µM): 0.35
- relative viability ([2]; first compound 4 µM): 0.356
- relative viability ([3]; first compound 0.04 µM): 1.18
- relative viability ([3]; first compound 0.1265 µM): 1.09
- relative viability ([3]; first compound 0.4 µM): 1.07
- relative viability ([3]; first compound 1.265 µM): 1.17
- relative viability ([3]; first compound 4 µM): 1.22
- relative viability ([4]; first compound 0.04 µM): 1.05
- relative viability ([4]; first compound 0.1265 µM): 1.17
- relative viability ([4]; first compound 0.4 µM): 1.13
- relative viability ([4]; first compound 1.265 µM): 0.812
- relative viability ([4]; first compound 4 µM): 1.06
- relative viability ([5]; first compound 0.04 µM): 1.01
- relative viability ([5]; first compound 0.1265 µM): 0.988
- relative viability ([5]; first compound 0.4 µM): 0.915
- relative viability ([5]; first compound 1.265 µM): 0.366
- relative viability ([5]; first compound 4 µM): 0.783
- relative viability ([6]; first compound 0.04 µM): 0.767
- relative viability ([6]; first compound 0.1265 µM): 0.86
- relative viability ([6]; first compound 0.4 µM): 0.575
- relative viability ([6]; first compound 1.265 µM): 0.581
- relative viability ([6]; first compound 4 µM): 0.361
- relative viability ([7]; first compound 0.04 µM): 0.938
- relative viability ([7]; first compound 0.1265 µM): 0.964
- relative viability ([7]; first compound 0.4 µM): 1.04
- relative viability ([7]; first compound 1.265 µM): 1.03
- relative viability ([7]; first compound 4 µM): 0.951
- relative viability ([8]; first compound 0.04 µM): 0.672
- relative viability ([8]; first compound 0.1265 µM): 0.739
- relative viability ([8]; first compound 0.4 µM): 0.688
- relative viability ([8]; first compound 1.265 µM): 0.701
- relative viability ([8]; first compound 4 µM): 0.845
- relative viability ([9]; first compound 0.04 µM): 0.209
- relative viability ([9]; first compound 0.1265 µM): 0.2
- relative viability ([9]; first compound 0.4 µM): 0.196
- relative viability ([9]; first compound 1.265 µM): 0.229
- relative viability ([9]; first compound 4 µM): 0.199
- relative viability ([10]; first compound 0.04 µM): 0.777
- relative viability ([10]; first compound 0.1265 µM): 0.813
- relative viability ([10]; first compound 0.4 µM): 0.565
- relative viability ([10]; first compound 1.265 µM): 0.5
- relative viability ([10]; first compound 4 µM): 0.421
- relative viability ([11]; first compound 0.04 µM): 0.337
- relative viability ([11]; first compound 0.1265 µM): 0.412
- relative viability ([11]; first compound 0.4 µM): 0.43
- relative viability ([11]; first compound 1.265 µM): 0.465
- relative viability ([11]; first compound 4 µM): 0.234
- relative viability ([12]; first compound 0.04 µM): 0.663
- relative viability ([12]; first compound 0.1265 µM): 0.753
